Consider six compounds from patent US3954775A, “Thiazolo(5,4-f)quinoline-8-carboxylic acid derivatives” (Sumitomo Chemical Company, Limited, priority 1973, dated 1976).

The subject of data set [1] is Escherichia coli NIHJ. In words: in vitro antibacterial activity, tube dilution method. It is filed as cell-based. The note with it: read-out: In vitro Antibacterial Activities. An excerpt:
(§1) The in vitro antibacterial activities were compared with 6-ethyl-2,3,6,9-tetrahydro-3-methyl-2,9-dioxothiazolo[5,4-f]quinoline-8-carboxylic acid (hereinafter Compound (D)) and nalidixic acid (hereinafter Compound (E)) using the tube dilution method.

Data set [2] relates to Klebsiella pneumoniae PCI 602. The data set is described as above. It is filed as cell-based.
Excerpt: as §1

Data set [3] deals with Proteus mirabilis GN-2425. The data set is described as above. It is filed as cell-based.
Excerpt: as §1

In data set [4] the test system is Proteus vulgaris HX-19. The description is as above. It is filed as cell-based.
Excerpt: as §1

Data set [5] deals with Pseudomonas aeruginosa 104. The description is as above. It is filed as cell-based.
Excerpt: as §1

The test system of data set [6] is Staphylococcus aureus 209-P. The data set is described as above. Format: cell-based. The note with it: read-out: In vitro Antibacterial Activities.
Excerpt: as §1

Data set [7] has as its system Bacillus subtilis PCI 219. The data set is described as above. The settings on record: PCI219, read-out: In vitro Antibacterial Activities. It is filed as cell-based.
Excerpt: as §1

Data set [8] relates to Escherichia coli No. 34. The experiment in a line: in vivo protection of infected mice, oral. The note with it: for ED50: Escherichia coli, intraperitoneal infection, oral 1 hour and 6 hours after infection, E. coli No. 34. The protocol: (§2) The mice were inoculated intraperitoneally with the test organisms in 5% gastric mucin. The test compounds were suspended in 0.5% carboxymethylcellulose and administered orally 1 hour and 6 hours after infection.

Data set [9] concerns Escherichia coli No. 37. In words: in vivo protection of infected mice, oral. The settings on record: intraperitoneal infection, oral 1 hour and 6 hours after infection, E. coli No. 37. The protocol:
as §2

Data set [10] relates to Proteus mirabilis GN-2425. In words: in vivo protection of infected mice, oral. The settings on record: for ED50: Proteus mirabilis, GN2425, intraperitoneal infection, oral 1 hour and 6 hours after infection, P. mirabilis GN-2425. The procedure:
as §2

The test system of data set [11] is organism tested. In words: in vivo protection of infected mice, organisms tested overall. The settings on record: oral, result in words. The procedure: as §2
The conditions of data set [12]: prior art statement in words; cited from earlier work.
The conditions of data set [13]: prior art statement in words; cited from earlier work. The source holds these as a separate data set.
Data set [14] has as its system gram-negative bacteria. In words: in vitro antibacterial activity on gram-negative bacteria, tube dilution method. It is filed as cell-based. The settings on record: for antibacterial activities on gram-negative bacteria: tube dilution method, result in words.
Excerpt: as §1

Data set [15] is described as follows: concentrations in serum of mice after a single oral dose. The settings on record: single oral dose of 50 mg/kg. It is filed as in vivo. The procedure: […] concentrations in serum of Compound (A) and Compound (D) were determined in the mice after a single oral dose of 50 mg/kg. […] The peak value for Compound (A) was about 12 times higher than that of Compound (D).

Data set [16] is described as follows: urinary excretion in fasting rats after a single oral dose. It is filed as in vivo. The note with it: single oral dose of 50 mg/kg. The protocol: Urinary excretions in fasting rats after a single oral dose of 50 mg/kg were also examined.
Compound (A) was excreted in the urine about 7 times faster than Compound (D). Recovery rates of Compound (A) in the urine were 2.0% after 24 hours.

Data set [17] is described as follows: preliminary toxicity in rats, 9 days oral. It is filed as in vivo, female rats of Spraugue-Dewlty-SLC strain. The note with it: 1000 to 2000 mg/kg/day orally for 9 days. The protocol: To 6-week old female rats of Spraugue-Dewlty-SLC strain, 1000 to 2000 mg/kg/day of Compound A were administered orally for 9 days.
The subject of data set [18] is Diplococcus pneumoniae Newfeld. The experiment in a line: in vitro antibacterial activity, tube dilution method. Format: cell-based. The settings on record: Streptococcus pneumoniae, read-out: In vitro Antibacterial Activities.
Excerpt: as §1

Data set [19] relates to Sarcina lutea PCI 1001. The data set is described as above. The settings on record: Micrococcus luteus, PCI1001, read-out: In vitro Antibacterial Activities. Format: cell-based.
Excerpt: as §1

The test system of data set [20] is Staphylococcus albus 1200 A. The data set is described as above. Format: cell-based. The note with it: read-out: In vitro Antibacterial Activities.
Excerpt: as §1

Data set [21] concerns Streptococcus hemolyticus A-1. Described as above. Format: cell-based. The settings on record: Streptococcus pyogenes, A1, read-out: In vitro Antibacterial Activities.
Excerpt: as §1

Data set [22] has as its system gram-positive bacteria such as Staphylococcus, Streptococcus, Diplococcus. In words: in vitro antibacterial activity on gram-positive bacteria, tube dilution method. The note with it: result in words. It is filed as cell-based.
Excerpt: as §1
The antibacterial spectrum of 3-benzyl-6-benzyloxy-2,3,6,9-tetrahydro-2,9-dioxothiazolo[5,4-f]quinoline- 8-carboxylic acid (hereinafter Compoud (B)) is different from the other compounds.

Data set [23] concerns Aspergillus niger. The experiment in a line: antifungal activity on Sabourand agar. The note with it: read-out: minimum inhibitory concentration. It is filed as cell-based. The protocol: (§3) The activities of ethyl 2,9-dichlorothiazolo[5,4-f]quinoline-8-carboxylate-6-oxide (Compound (F)) on Trichophyton rubrum and Aspergillus niger were tested on Sabourand agar. […] The minimum inhibitory concentrations were 0.78 mcg/ml for Trichophyton rubrum and 25 mcg/ml for Aspergillus niger.

Data set [24] deals with Trichophyton rubrum. The experiment in a line: antifungal activity on Sabourand agar. It is filed as cell-based. The settings on record: read-out: minimum inhibitory concentration. The protocol:
as §3

In data set [25] the test system is Trichophyton rubrum and Aspergillus niger. In words: antifungal activity on Sabourand agar, fungi tested overall. It is filed as cell-based. The protocol: as §3
Setting [26] is: Escherichia coli NIHJ, tube dilution method.
Setting [27] is: PCI602, Klebsiella pneumoniae PCI 602, tube dilution method, read-out: In vitro Antibacterial Activities.
Where [28] appears, read: GN2425, Proteus mirabilis GN-2425, tube dilution method, read-out: In vitro Antibacterial Activities.
The mark [29] stands for this setting: HX19, Proteus vulgaris HX-19, tube dilution method, read-out: In vitro Antibacterial Activities.
Setting [30] is: Pseudomonas aeruginosa 104, tube dilution method, read-out: In vitro Antibacterial Activities.
Where [31] appears, read: Staphylococcus aureus 209-P, tube dilution method.

Converted amounts (≈) assume the structure as drawn. Like-named read-outs stand apart in the source and are kept apart here. Bounds are passed on as bounds.

With `CCn1cc(C(=O)O)c(=O)c2ccc(C)nc21` [E, nalidixic acid, reference compound], the MIC in data set [1] (Escherichia coli) was 3.13 µg/mL (≈ 13.5 µM); in [2] (Klebsiella pneumoniae, PCI602, read-out: In vitro Antibacterial Activities), 3.13 µg/mL (≈ 13.5 µM); in [3] (Proteus mirabilis, GN2425, read-out: In vitro Antibacterial Activities) it was 6.25 µg/mL (≈ 26.9 µM); in [4] (Proteus vulgaris, HX19, read-out: In vitro Antibacterial Activities), 0.78 µg/mL (≈ 3.36 µM); in data set [5] (Pseudomonas aeruginosa, 104, read-out: In vitro Antibacterial Activities) it was above 200 µg/mL; in [6] (Staphylococcus aureus, 209P), 100 µg/mL (≈ 431 µM).
As to `CCn1cc(C(=O)O)c(=O)c2c3sc(=O)n(C)c3ccc21` [Compound D, 6-ethyl-2,3,6,9-tetrahydro-3-methyl-2,9-dioxothiazolo[5,4-f]quinoline-8-carboxylic acid, reference compound], the MIC in data set [7] is 0.25 µg/mL (≈ 0.821 µM); in [1] (setting [26]), 0.2 µg/mL (≈ 0.657 µM); in data set [2] (setting [27]), 0.2 µg/mL (≈ 0.657 µM); in [3] (setting [28]) it was 0.78 µg/mL (≈ 2.56 µM); in data set [4] (setting [29]), 0.1 µg/mL (≈ 0.329 µM); in [5] (setting [30]) it was above 200 µg/mL. In data set [6] (setting [31]), the MIC stood at 12.5 µg/mL (≈ 41.1 µM). For the same compound, the ED50 (in general, the dose at which the effect has come halfway, by size or by number of responders) in data set [8] is above 100 mg/kg; in data set [9] it was above 40 mg/kg; in data set [10] it was above 40 mg/kg. Moreover, the “activities on the organism tested in vivo” value in data set [11] is “did not show activities on the organism tested”. In data set [12], the “antibacterial activity in vitro” value is “noticeable antibacterial activity in vitro”. In addition, the “antibacterial activity in vivo” value in data set [13] is reported as “does not possess a sufficient antibacterial activity in vivo”.
Regarding `COn1cc(C(=O)O)c(=O)c2c3sc(=O)n(C)c3ccc21` [Compound A, 2,3,6,9-Tetrahydro-6-methoxy-3-methyl-2,9-dioxothiazolo[5,4-f]quinoline-8-carboxylic acid], the MIC came out at 0.5 µg/mL (≈ 1.63 µM) in [7]; 0.2 µg/mL (≈ 0.653 µM) in [1] (setting [26]); 0.2 µg/mL (≈ 0.653 µM) in [2] (setting [27]); 0.39 µg/mL (≈ 1.27 µM) in [3] (setting [28]); 0.1 µg/mL (≈ 0.326 µM) in data set [4] (setting [29]); 25 µg/mL (≈ 81.6 µM) in [5] (setting [30]). Also, the MIC in data set [6] (setting [31]) was 12.5 µg/mL (≈ 40.8 µM). Besides, in data set [14] (comparison in words), the “activity in vitro compared with Compound (D)” value is given as “as active as Compound (D)”. Also, the “activity in vitro compared with Compound (E)” value in data set [14] (comparison with nalidixic acid in words) is on record as “more active than Compound (E)”. For the same compound, in data set [14], the “antibacterial activities on gram-negative bacteria” value was “showed antibacterial activities on gram-negative bacteria”. The 50% effective dose (ED50) is 50 mg/kg in data set [8], above 20 mg/kg in data set [9] and 14 mg/kg in [10]. Besides, the “effectiveness in protecting mice against E. Coli No. 34, compared with Compound (D)” value in data set [8] (oral, comparison in words) was “more effective than Compound (D)”. The “effectiveness in protecting mice against P. Mirabilis GN 2425, compared with Compound (D)” value in data set [10] (oral, comparison in words) is on record as “more effective than Compound (D)”. The “time at which serum levels reached a maximum” value in data set [15] is reported as “within an hour”. For the same compound, the “peak serum value relative to Compound (D)” value in data set [15] (times higher than Compound (D)) is given as “about 12 times”. Further, the dose excreted at 24 h in [16] (rat, urine, after 24 hours, read-out: Recovery rates in the urine) stood at 2%. Moreover, in [16], the “excretion in the urine, times faster than Compound (D)” value was “about 7 times”. Besides, the “urinary concentration compared with Compound (D)” value in data set [16] (in words) is listed as “superior to Compound (D)”. The “urinary recovery rate compared with Compound (D)” value in data set [16] (in words) is on record as “superior to Compound (D)”. Also, the macroscopic examinations entry in data set [17] is listed as “no abnormal findings were observed”. The symptoms entry in [17] is “No significant symptoms were observed”. Besides, the “urinalysis (pH, protein, glucose, ketone bodies and occult blood)” value in [17] is “no abnormality was found”. In data set [17] (at all doses), the body weight entry is on record as “did not decrease”. Moreover, the body weight-gain result in [17] (at all doses) is “slightly decreased”.
Turning to `O=C(O)c1cn(OCc2ccccc2)c2ccc3c(sc(=O)n3Cc3ccccc3)c2c1=O` [B, 3-benzyl-6-benzyloxy-2,3,6,9-tetrahydro-2,9-dioxothiazolo[5,4-f]quinoline-8-carboxylic acid], the MIC in data set [7] is 0.78 µg/mL (≈ 1.7 µM); in data set [18] it was 1.56 µg/mL (≈ 3.4 µM); in [1] (setting [26]), above 200 µg/mL; in data set [2] (setting [27]) it was above 200 µg/mL; in data set [3] (setting [28]), above 200 µg/mL; in data set [4] (setting [29]), above 200 µg/mL. The MIC in data set [5] (setting [30]) was above 200 µg/mL; in data set [19], 1.56 µg/mL (≈ 3.4 µM); in data set [20], 3.13 µg/mL (≈ 6.83 µM); in data set [6] (setting [31]) it was 1.56 µg/mL (≈ 3.4 µM); in data set [21], 1.56 µg/mL (≈ 3.4 µM). Moreover, in data set [22], the “inhibitory activity on gram-positive bacteria” value is “exhibited inhibitory activity on gram-positive bacteria”.
Take `CCOC(=O)c1c[n+]([O-])c2ccc3nc(Cl)sc3c2c1Cl` [F, ethyl 2,9-dichlorothiazolo[5,4-f]quinoline-8-carboxylate-6-oxide]: the MIC was determined as 25 µg/mL (≈ 72.8 µM) in data set [23] and 0.78 µg/mL (≈ 2.27 µM) in data set [24]. The “inhibitory activity on the fungi tested” value in [25] (Sabourand agar, result in words) is on record as “exhibited inhibitory activity on the fungi tested”. The “antifungal activity in vitro relative to griseofulvin” value in data set [25] (in vitro, comparison in words) was “twice as active than griseofulvin”.
As to `C=CCOn1cc(C(=O)O)c(=O)c2c3sc(=O)n(CC=C)c3ccc21` [C, 2,3,6,9-tetrahydro-3-allyl-6-allyloxy-2,9-dioxothiazolo[5,4-f]quinoline-8-carboxylic acid], the MIC in data set [1] (setting [26]) is 100 µg/mL (≈ 279 µM); in data set [2] (setting [27]) it was 200 µg/mL (≈ 558 µM); in data set [3] (setting [28]), above 200 µg/mL; in data set [4] (setting [29]), 3.13 µg/mL (≈ 8.73 µM); in data set [5] (setting [30]) it was above 200 µg/mL; in data set [6] (setting [31]), 50 µg/mL (≈ 140 µM). For the same compound, the “antibacterial activities on gram-negative bacteria” value in data set [14] is listed as “showed antibacterial activities on gram-negative bacteria”.
